Laboratory results as given in patent publication US20160193148A1, “LIPOSOMAL FORMULATIONS FOR THE TREATMENT OF BACTERIAL INFECTIONS” (UNIVERSITY OF GEORGIA RESEARCH FOUNDATION, INC., priority 2013, published 2016).
“And” between values parts separate entries of the source, which are not always exact repeats. Identical values can stand only once. Like-named read-outs stand apart in the source and are kept apart here. Marks after values point to notes of the source that are not given here.

Assays:
[1] = BAL cell gentamicin concentrations after single IV or nebulized dose in foals; details: BAL cells
Procedure: Eight healthy 5-7-week-old Quarter Horse foals were randomly assigned to one of 4 groups using a balanced Latin-square design. Foals were considered healthy on the basis of physical examinations, complete blood cell counts and plasma biochemical profiles. […] The liposome gentamicin formulation was nebulized using Nortev FLEXINEB. For each treatment, gentamicin was administered over a period of 15 minutes. There was a washout period of 7-14 days between each treatment.
For the BAL collection, foals were sedated with xylazine and butorphanol. Concentrations of gentamicin were measured in plasma and in bronchoalveolar cells using HPLC-MS.
Eight foals received a single IV or nebulized dose (6.6 mg/kg bwt) of FG^h or LG in a balanced Latin square design. Beginning at 5-7 weeks of age, every foal received each of the 4 possible drug-route combinations with a 14-day washout period between each administration. Intravenous FG and LG were diluted in 250 ml of sterile 0.9% saline and administered via a jugular catheter as a constant rate infusion over 15 min. Nebulized FG and LG were administered by inhalation over 15 minutes via a commercial equine nebulizer. To ensure equivalent rate of delivery, FG was diluted to the same volume as LG with sterile 0.9% saline. Particle size of nebulized LG was verified using laser diffraction. Blood samples for plasma separation were obtained from a catheter placed in the contralateral jugular vein prior to each drug administration, and at 5, 10, 20, 30, 45 minutes and 1, 1.5, 2, 3, 4, 6, 8, 12, 16, 24 and 48 hours after the end of the 15 minute IV infusion or nebulization period. Bronchoalveolar lavage (BAL) fluid was collected at 2, 4, 8, 24, and 48 hours. Foals were sedated with xylazine hydrochloride (0.5 mg/kg bwt IV) and butorphanol tartrate (0.07 mg/kg bwt IV) prior to collection of BAL fluid. Prior to analysis for gentamicin concentration, blood samples were centrifuged at 400×g for 10 minutes and the resultant plasma frozen at −80° C. until assayed.
(§1) A 10 mm diameter, 2.4 m BAL catheter^k was passed via nasal approach until wedged into a bronchus. The lavage solution consisted of 4 aliquots of 60 ml 0.9% saline solution infused and instantly aspirated. Immediately upon collection, the total volume of BAL fluid recovered was measured and a 3 ml aliquot saved in an EDTA tube from which total nucleated cell count was determined by use of a cell counter.^1 BAL fluid was immediately centrifuged at 400×g for 10 min. The BAL cells in the resultant pellet were washed, re-suspended in 500 μl of acetonitrile: 0.2% formic acid (1:1, v/v), vortexed, and frozen at −80° C. until assayed. Supernatant BAL fluid was also frozen at −80° C. until assayed. Before assaying, the cell pellet samples were thawed, vortexed vigorously and sonicated for 10 minutes to ensure complete cell lysis. The resulting suspension was centrifuged at 500×g for 10 minutes and the supernatant fluid was used to determine the intracellular concentrations of gentamicin.
(§2) Briefly, gentamicin was extracted from plasma (250 μl) and urine (500 μl) using protein precipitation with an equal volume of ice-cold 90:10 acetonitrile: 0.2% formic acid (v/v). Extracted samples were centrifuged (2° C. at 10,000×g for 10 min) twice. Two-hundred microliters of the supernatants were transferred to polypropylene inserts for injection. The supernatant derived from the lyzed BAL cell pellet was transferred to polypropylene inserts for direct injection without further processing. […] An aliquot of the resultant supernatant was then mixed with an equal volume of ice-cold acetonitrile, centrifuged (2° C. at 10,000×g for 10 minutes) and 200 μl was transferred to polypropylene inserts for injection. Calibration standards were prepared in drug-free foal plasma, BAL fluid or urine and then extracted as described above so that standard curves specific to each biologic matrix could be constructed.

[2] = Repeated dose IV LG or FG: gentamicin in plasma, BAL cells and urine of foals
Procedure: Each dose was diluted in 250 ml of sterile 0.9% saline and administered over 15 minutes via an indwelling 14 G catheter placed in a jugular vein. Blood samples for plasma separation and measurement of gentamicin concentrations were obtained on day 1 and on day 7 at the times listed for study 1. Bronchoalveolar lavage fluid was collected 2, 6 and 24 hours after the end of infusion on day 7. Urine was collected the day prior to the first drug dose (day 0) and again 2 hours after the end of the infusion on days 3 and 7. Foals were sedated with xylazine hydrochloride (1.1 mg/kg bwt IV) and anesthetized with ketamine (2.2 mg/kg bwt IV) to allow passage of a urinary catheter using aseptic techniques. Urinalysis was performed and urine and concurrently obtained plasma samples were submitted for measurement of creatinine, γ-glutamyltransferase (GGT), protein, calcium, chloride, magnesium, sodium, and potassium concentrations. Fractional excretion of electrolytes, urinary GGT to creatinine ratio, and urinary protein to creatinine ratios were calculated. Prior to analysis for gentamicin concentration by LC-MS, urine and plasma samples were centrifuged at 400×g for 10 minutes and the supernatant was frozen at −80° C. until assayed.
as §1
as §2, with “constructed. […] Analyte separation and LC-MS/MS measurement of gentamicin were performed exactly as described previously (Burton et al. (2013) Equine Vet J. 45, 507-511) except that BAL fluid samples, were introduced in the MS with a flow rate of 0.18 ml/minutes and a total run time of 8 minutes due to relatively low gentamicin concentration in those samples.” for “constructed.”
Estimation of the volume of PELF was determined by urea dilution method (Rennardet al. (1986) J. Appl. Physiol 60, 532-538).

[3] = simulation, Burton et al. 2013, cited from earlier work
[4] = tested on: R. equi isolates; details: Riesenberg et al. 2013; cited from earlier work
[5] = 6.6 mg/kg IV q 24 h, 7 doses, day 7

With gentamicin sulfate [Free Gentamicin] the AUC0-t ([1]; IV) was 58.9 ± 41.5^a μg · h/ml, the C24 h ([1]; IV) was 1500 ± 1230 ng/mL and the “Tmax (median and range)” value ([1]; IV) was 2 (2-8)^a h. It also gave an AUC0-24 ([1]; IV, Table 3) of 58900 ± 41500 ng·h/mL, a C48 h ([1]; IV, Table 3) of 0.5 ± 0.6 µg/mL and a Cmax ([1]; IV, Table 3) of 3.0 ± 1.7 µg/mL. For the same substance, the C48 h ([1]; IV, Table 5) was 0.47 ± 0.62^a μg/ml, the Cmax ([1]; IV, Table 5, listed as FG) was 3.0±1.7 μg/ml and 2.98 ± 1.67^a μg/ml and the AUC0-24 ([1]; N (nebulized), Table 3) was 37200 ± 18900 ng·h/mL. The C48 h ([1]; N (nebulized), Table 3) was 0.3 ± 0.2 µg/mL, the Cmax ([1]; N (nebulized), Table 3) was 1.5 ± 0.6 µg/mL and the AUC0-t ([1]; Neb) was 37.2 ± 19.0^a μg · h/ml. For the same substance, the C24 h ([1]; Neb) was 1010 ± 570 ng/mL, the “Tmax (median and range)” value ([1]; Neb) was 3 (2-48)^a h and the C48 h ([1]; Neb, Table 5) was 0.32 ± 0.23^a μg/ml. The Cmax ([1]; Neb, Table 5, listed as FG) was 1.5±0.6 μg/ml and 1.49 ± 0.57^a μg/ml, the “AUC0-t in BAL cells” value [2, 5] was 104800 ± 35100 ng·h/mL and the “Cmax in BAL cells” value [2, 5] was 6700 ± 1900 ng/mL. For the same substance, the “Concentration in BAL cells at 24 hours” value [2, 5] was 3500 ± 1800 ng/mL, the “Tmax in BAL cells (median)” value ([2]; 6.6 mg/kg IV q 24 h, 7 doses, day 7, range 2-24 hours) was 6 h and the Urine gentamicin ([2]; Day 3) was 94.8 ± 47.5 µg/mL. For the same substance, the Urine gentamicin ([2]; Day 7) was 87.5 ± 5 µg/mL, the “accumulation in plasma over 1 week of daily administration” value ([2]; day 1 vs day 7 plasma pharmacokinetic variables) was “no accumulation” and the “predicted plasma concentration 1 hour after IV administration” value ([3]; at 4 weeks of age) was 25.27 ± 9.52 µg/mL. The “predicted plasma concentration 24 hours after administration” value ([3]; at 4 weeks of age) was 0.20 ± 0.22 µg/mL, the “predicted plasma concentration 1 hour after IV administration” value ([3]; at 12 weeks of age) was 34.52 ± 14.11 µg/mL and the “predicted plasma concentration 24 hours after administration” value ([3]; at 12 weeks of age) was 0.26 ± 0.11 µg/mL. For the same substance, the “MIC that inhibits at least 90% (MIC90) of R. equi isolates” value [4] was 0.5 µg/mL.
